Experimental data as given in patent US20230310540A1, “PEPTIDE COMPOSITIONS AND METHODS OF USE THEREOF” (priority 2020, published 2023).
In brackets after ≈: the same amount, converted by molar mass. Like-named read-outs stand apart in the source and are kept apart here.

Key:
[1] = test system: Methicillin-resistant Staphylococcus aureus (SAP400); test: Broth dilution MIC against MRSA isolate; assay type: cell-based
[2] = test system: Acinetobacter baumannii (PDR); test: Broth dilution MIC against pan drug-resistant A. baumannii isolate; assay type: cell-based; settings: isolate AB (PDR)
[3] = test system: Pseudomonas aeruginosa (CF mucoid and non-mucoid); test: Broth dilution MIC against P. aeruginosa isolates from cystic fibrosis patients; assay type: cell-based
[4] = test system: Klebsiella pneumoniae clinical isolates
[5] = isolate KP (Morici), ATCC #33495

Row | Compound | MIC [1] [µM] | MIC [2] [µM] | MIC ([3]; isolate PA (mucoid)) [µM] | MIC ([3]; isolate PA (non-mucoid)) [µM] | MIC ([4]; isolate KP 2146 (NDM-1)) [µM] | MIC ([4]; isolate KP (6)) [µM] | MIC ([4]; isolate KP (46)) [µM] | MIC ([4]; isolate KP (398)) [µM] | MIC ([4]; isolate KP (CRE)) [µM] | MIC [4, 5] [µM] | MIC ([4]; isolate KP (ST258C3)) [µM] | MIC ([4]; isolate KP (ST258I2)) [µM] | MIC ([4]; isolate KP (ST396)) [µM] | MIC ([4]; isolate KP (St258 C2)) [µM]
1 | CC(C)(O/N=C(\C(=O)N[C@@H]1C(=O)N2C(C(=O)[O-])=C(C[n+]3ccccc3)CS[C@H]12)c1csc(N)n1)C(=O)O [CAZ, Ceftazidime] | >150 | >150 | 115.9 (≈ 63.3 µg/mL) | >150 | >150 | >150 | >150 | 132.7 (≈ 72.5 µg/mL) | >150 | >150 | >150 | >150 | >150 | >150
2 | CO/N=C(\C(=O)N[C@@H]1C(=O)N2C(C(=O)O)=C(CSc3nc(=O)c(O)nn3C)CS[C@H]12)c1csc(N)n1 [CRO, Ceftriaxone] | >150 | >150 | 137.2 (≈ 76.1 µg/mL) | 88.45 (≈ 49.1 µg/mL) | >150 | >150 | 1.9 (≈ 1.05 µg/mL) | 0.2 (≈ 0.111 µg/mL) | 45 (≈ 25 µg/mL) | 0.3 (≈ 0.166 µg/mL) | >150 | >150 | 1.9 (≈ 1.05 µg/mL) | >150
3 | C[C@@H](O)[C@H]1C(=O)N2C(C(=O)O)=C(S[C@@H]3CN[C@H](C(=O)N(C)C)C3)[C@H](C)[C@H]12 [MEM, Meropenem] | >150 | >150 | 13.3 (≈ 5.1 µg/mL) | 4 (≈ 1.53 µg/mL) | >150 | 0.2 (≈ 0.0767 µg/mL) | 0.4 (≈ 0.153 µg/mL) | 0.2 (≈ 0.0767 µg/mL) | 108.3 (≈ 41.5 µg/mL) | 0.2 (≈ 0.0767 µg/mL) | >150 | >150 | 0.3 (≈ 0.115 µg/mL) | >150
4 | Gentamicin | >150 | >150 | 5.5 | 8.3 | >150 | >150 | 1.6 | 1.9 | 5.2 | 1.9 | >150 | 8.3 | 2 | >150
